Assay [1] concerns Leishmania major. Nature of the assay: Antileishmanial activity against wild-type Leishmania major LV39 promastigotes infected in human THP1 cells by luciferase based assay. Type of assay: functional, organism-based. The conditions noted are these: LV39, THP-1.
The subject of assay [2] is Leishmania amazonensis. Nature of the assay: Antileishmanial activity against wild-type Leishmania amazonensis MHOM/BR/1973/MM2269 promastigotes infected in human THP1 cells by luciferase based assay. Particulars: THP-1. Type of assay: functional, organism-based.
For assay [3], the system named is Leishmania infantum. Nature of the assay: Antileishmanial activity against wild-type Leishmania infantum MHOM/MA/67/ITMAP-263 promastigotes infected in human THP1 cells by luciferase based assay. It is filed as functional, organism-based. Particulars: THP-1.
The test system of assay [4] is Leishmania major. As to the kind of experiment: Antileishmanial activity against ABC transporter PRP1 gene expressing Leishmania major LV39 promastigotes infected in human THP1 cells assessed as fold resistance by luciferase based assay relative to control. Type of assay: functional, THP-1.
Assay [5] has as its system Leishmania amazonensis. As to the kind of experiment: Antileishmanial activity against ABC transporter PRP1 gene expressing Leishmania amazonensis MHOM/BR/1973/MM2269 promastigotes infected in human THP1 cells assessed as fold resistance by luciferase based assay relative to control. It is filed as functional, THP-1.
In assay [6] the test system is Leishmania infantum. As to the kind of experiment: Antileishmanial activity against ABC transporter PRP1 gene expressing Leishmania infantum MHOM/MA/67/ITMAP-263 axenic amastigotes assessed as fold resistance relative to control.

Regarding `N=C(N)c1ccc(OCCCCCOc2ccc(C(=N)N)cc2)cc1` [PENTAMIDINE], the concentration for half-maximal inhibition (IC50) was 5.1 µg/mL in assay [1], 6.8 µg/mL in assay [2] and 10 µg/mL in assay [3]. Besides, the “fold change (FC)” value in assay [4], in assay [5] and in assay [6] was 3 each time.
In the case of `COc1ccc(CCN(C)CCCC(C#N)(c2ccc(OC)c(OC)c2)C(C)C)cc1OC` (centres undefined) [VERAPAMIL], the IC50 stood at 40.3 µM in assay [1], 19.1 µM in assay [2] and 43.2 µM in assay [3].

Values taken from ChEMBL document CHEMBL1155136, “Role of the ABC transporter PRP1 (ABCC7) in pentamidine resistance in Leishmania amastigotes” (Antimicrob Agents Chemother, 2007).
